Laboratory results published in US11510903B2, “Synergic pharmaceutical composition of the active enantiomer (S)-ketorolac and Gabapentin for the treatment of neuropathic pain” (priority 2018, dated 2022).

Experiments:
[1] = Relative pharmacological potency of S-Ketorolac tromethamine versus Rac Ketorolac and AA; settings: fold more potent
[2] = fold more active; cited from earlier work
[3] = system: rats with a chronic constriction injury (neuropathic pain); assay: Acetone test (cold allodynia) in rats with chronic constriction injury of the sciatic nerve; type: in vivo, rat (male Wistar); settings: oral
Text: (§1) Said experimental model is based on the unilateral ligature of the sciatic nerve, which produces a chronic constriction injury, (CCI). This experimental model has shown itself to be sensitive to a number of drugs that are used clinically for the symptomatic treatment of neuropathic pain. […] The following observed behaviors are indicative of neuropathic pain: (1) autotomy, the animal injures itself in the denervated leg, (2) allodynia, withdrawal of the leg in the face of harmless stimulus that may be mechanical or cold (acetone), (3) hyperalgesia, violent withdrawal of the leg in the face of a moderate thermal or mechanical stimulus (Von Frey filaments 15 g). These aforementioned parameters have been widely used on pharmacology and the modulation of neuropathic pain. The tests that are most used to determine allodynia and hyperalgesia are: mechanical hyperalgesia with the von Frey filaments, the cold allodynia with acetone, thermal hyperalgesia with the plantar test and mechanical hyperalgesia with the pinprick test.
Male Wistar rats [Crl:(WI)fBR], with a body weight of 120-140 g at the start of the experimental phase, which weighed 160-180 g when the drugs were administered, were used for the particular study in this invention. The animals were kept in polycarbonate boxes under conditions of controlled temperature and light, with 12-hour cycles of light/dark and ad limitum water and food intake. All the experiments were carried out during the light phase. The animals were used and managed following the guidelines established in the Ethical Guidelines for Pain Research of the International Association for the Study of Pain, and following a protocol approved by the Local Committee of Ethics for the Management of Laboratory Animals. The number of experimental animals was kept to a minimum (n=6 to 8), and, at the end of the experimental determinations, the animals were sacrificed using carbon dioxide.
The model for ICC neuropathic pain described by Bennett and Xie in 1988 was standardized. The rats were anesthetized and the sciatic nerve of the rear right leg was immediately dissected, by means of an incision, dissecting the biceps femoris to locate the part that is most proximal to the trifurcation of the sciatic nerve and apply four loose ligatures with silk thread. At the end of the surgery, the muscle was sutured with absorbable thread and the skin with silk thread. The surgery of the rats falsely operated on (Sham) was done in the same way, however, the sciatic nerve was not tied. This entire procedure was performed under aseptic conditions.
The degree of hyperalgesia and allodynia in the rats submitted to the sciatic nerve surgery was determined by means of the Von Frey test and the acetone test. These determinations were made a day before the surgery and, 7 days after the surgery a time-course of 180 minutes was done for both the control (saline) and for the compounds that were administered orally, in the study, both singly and combined, to evidence the hyperalgesia and allodynia that were present. Then a time-course was made of hyperalgesia and allodynia, but now in rats with chronic treatment (1 administration/12 hours), carrying out the determinations of both hyperalgesia and allodynia 30 minutes after the morning administration of the treatments being studied and in the following period: 0, 1, 3, 5 and 7 days (14 administrations in total).
At the end of the Von Frey test, the rats were left to rest on the metal screen and after a 5-10 min period, approximately 0.1 mL of acetone was applied to the plantar surface of the rear legs using a syringe with a flexible plastic tip, below the metal grating. The time (seconds) the animal remained with its leg removed from the surface was recorded with a chronometer for 60 s after exposure to the acetone. The response time of the rear right leg was measured and three replications were made at intervals of at least 2 minutes. […]

[4] = system: rats (lethal effects vs anti-allodynic effects); assay: Therapeutic index (DL50/DE50) and safety margin study in rats; type: in vivo, rat; settings: 24 h post-treatment
Procedure: As further support for this invention, the therapeutic index study was also performed on rats 24 h post-treatment, which is defined as the quotient of DL50 (24 h)/DE50. From said analysis and calculation, we get that the higher the result, the safer the drug, as this indicates the number of times it is necessary to increase DE50 for it to be turned into DL50 in the population being analyzed.
In other words, in a combination of said active ingredients, the CDR (for desired effects and lethal effects) was farther apart, therefore S-Ketorolac is safer in combination, as these variables are much farther apart. […] There is less distance between the CDR (desired effects and lethal effects) of the compound alone, than between the CDR (desired effects and toxic effects) of S-Ketorolac in combination with gabapentin.

[5] = system: rats with a chronic constriction injury (neuropathic pain); assay: Von Frey test (mechanical hyperalgesia, 15 g filament) in rats with chronic constriction injury of the sciatic nerve; type: in vivo, rat (male Wistar); settings: oral
Text: as §1
Male Wistar rats [Crl:(WI)fBR], with a body weight of 120-140 g at the start of the experimental phase, which weighed 160-180 g when the drugs were administered, were used for the particular study in this invention. The animals were kept in polycarbonate boxes under conditions of controlled temperature and light, with 12-hour cycles of light/dark and ad limitum water and food intake. All the experiments were carried out during the light phase. […]
The degree of hyperalgesia and allodynia in the rats submitted to the sciatic nerve surgery was determined by means of the Von Frey test and the acetone test. […]
The rats were placed on a metal screen in a box of transparent acrylic where they remained for at least 10 minutes to adapt before the test. The response was determined to a tactile stimulus applied to the plantar surface of the rear right leg using the 15 g von Frey filament. […]

[6] = cited from earlier work
[7] = 31.6 mg/kg gabapentin alone, 1.5 h after administration

In the case of NC(CO)(CO)CO.O=C(c1ccccc1)c1ccc2n1CC[C@@H]2C(=O)O [S-Ketorolac tromethamine, S-(−)-5-Benzoyl-2,3-dihydro-1H-pyrrolizine-1-carboxylic acid of 2-amino-2-(hydroxymethyl)-1,3-propanediol (1:1)], the “pharmacological potency relative to AA” value [1] is given as 1037 times, the “pharmacological potency relative to Rac Ketorolac” value [1] is given as 3.3 times and the “activity relative to the R form” value [2] is given as 75 times.
For O=C(c1ccccc1)c1ccc2n1CC[C@@H]2C(=O)O [S-Ketorolac], the “anti-allodynic effect” value ([3]; 0.0316 mg/kg S-Ketorolac) was “almost no anti-allodynic effects”, the maximal anti-allodynic response ([3]; 0.316 mg/kg S-Ketorolac alone, 30 minutes after administration) was 44.00±7.71% and the “anti-allodynic effect” value ([3]; 1.0 mg/kg S-Ketorolac) was “maximum anti-allodynic effect”. For the same molecule, the “therapeutic index, DL50 (24 h)/DE50” value [4] was 18,541, the “maximal response for anti-hyperalgesic effects” value ([5]; 31.6 mg/kg S-Ketorolac alone, 1 h after administration) was 43.33±5.58% and the “dose up to which the anti-hyperalgesic effect increased with dose” value ([5]; doses 0.0316-100 mg/kg, no further increase above) was 3.16 mg/kg.
In the case of NCC1(CC(=O)O)CCCCC1 [gabapentin], the “anti-allodynic effect” value ([3]; 3.16 mg/kg gabapentin) is reported as “practically does not generate anti-allodynic effects”, the maximal anti-allodynic response [3, 7] is reported as 45.40±6.20% and the anti-allodynic effect ([3]; 31.6 mg/kg gabapentin alone, 3 h after administration) is reported as 23.70±6.90%. For the same molecule, the “anti-allodynic effect” value ([3]; 177.8 mg/kg gabapentin) was “maximum anti-allodynic effect”, the “time of maximal anti-allodynic response after administration (latency)” value ([3]; gabapentin 31.6 mg/kg alone or with 0.316 mg/kg S-Ketorolac) was 1.5 h and the bioavailability ([6]; 4,800 mg/day dose) was 27%. For the same molecule, the “metabolism” value ([6]; eliminated by renal excretion) was “not appreciably metabolized”, the “binding to plasma proteins” value ([6]; in vivo) was 3% and the “concentration in the cephalospinal liquid as share of the concentration in plasma” value ([6]; patients with epilepsy) was “approximately 20%”. For the same molecule, the “maximal response for anti-hyperalgesic effects” value [5, 7] was 71.67±12.50%.
